Test results: patent publication US6610744B2, “Methods of treatment with compounds having RARα receptor specific or selective activity” (Allergan, Inc., priority 1995, dated 2003)

Assays:
RXRΓ = molecular target: T1, RXRΓ (Homo sapiens, UniProt P48443); assay: Ligand binding assay, RXRΓ
T1 construct: made in house; host or cells: Baculovirus expression (insect cell extract)
T1 sequence (P48443 1-463): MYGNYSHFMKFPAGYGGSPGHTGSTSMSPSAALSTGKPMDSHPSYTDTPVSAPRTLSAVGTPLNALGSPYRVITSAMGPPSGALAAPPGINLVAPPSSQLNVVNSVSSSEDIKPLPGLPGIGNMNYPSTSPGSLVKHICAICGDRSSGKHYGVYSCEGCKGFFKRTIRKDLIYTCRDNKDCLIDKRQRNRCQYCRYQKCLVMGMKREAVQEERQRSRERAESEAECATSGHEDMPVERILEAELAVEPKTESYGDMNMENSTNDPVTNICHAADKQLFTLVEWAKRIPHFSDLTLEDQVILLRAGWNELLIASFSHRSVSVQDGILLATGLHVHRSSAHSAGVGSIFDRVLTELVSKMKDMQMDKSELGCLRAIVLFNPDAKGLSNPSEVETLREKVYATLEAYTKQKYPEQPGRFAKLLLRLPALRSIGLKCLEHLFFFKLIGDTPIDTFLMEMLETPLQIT
Procedure: All binding assays were performed in a similar fashion. All six receptor types were derived from the expressed receptor type (RARα, β, Γ and RXRα, β, Γ) expressed in Baculovirus. Stock solutions of all compounds were prepared as 10 mM ethanol solutions and serial dilutions carried out into 1:1 DMSO; ethanol. Assay buffers consisted of the following for all six receptor assays: 8% glycerol, 120 mM KCl 8 mM Tris, 5 mM CHAPS 4 mM DTT and 0.24 mM PMSF, pH-7.4@ room temperature.
All receptor binding assays were performed in the same manner. The final assay volume was 250 μl and contained from 10-40 μg of extract protein depending on receptor being assayed along with 5 nM of [^3H] all-trans retinoic acid or 10 nM [^3H] 9-cis retinoic acid and varying concentrations of competing ligand at concentrations that ranged from 0-10^−5 M. The assays were formatted for a 96 well minitube system. Incubations were carried out at 4° C. until equilibrium was achieved. Non-specific binding was defined as that binding remaining in the presence of 1000 nM of the appropriate unlabeled retinoic acid isomer. At the end of the incubation period, 50 μl of 6.25% hydroxyapitite was added in the appropriate wash buffer. The wash buffer consisted of 100 mM KCl, 10 mM Tris and either 5 mM CHAPS (RXRα, β, Γ) or 0.5% Triton X-100 (RARα, β, Γ). The mixture was vortexed and incubated for 10 minutes at 4° C., centrifuged and the supernatant removed. The hydroxyapitite was washed three more times with the appropriate wash buffer. The receptor-ligand complex was adsorbed by the hydroxyapitite. The amount of receptor-ligand complex was determined by liquid scintillation counting of hydroxyapitite pellet.
After correcting for non-specific binding, IC50 values were determined. […] The IC50 value was determined graphically from a loglogit plot of the data. The […] were determined by application of the Cheng-Prussof equation to the IC50 values, the labeled ligand concentration and the Kd of the labeled ligand.
The results of ligand binding assay are expressed in Kd numbers. (See Cheng et al. Biochemical Pharmacology Vol. 22 pp 3099-3108, expressly incorporated herein by reference.)

[1] = test system: AML-193 cells (acute monocytic leukemia); assay: AML 193 cell culture assay (3H-thymidine incorporation); format: cell-based, human; settings: FIG. 2
Procedure, shortened: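 t-RA from 1 mM ethanol stock, diluted in medium; ethanol-matched controls, subdued light. AML-193 cells (GM-CSF/insulin-dependent) at 1,000 cells/well incubated 96 h at 37 °C with retinoids, then 6 h with 1 μCi [3H]-thymidine; TCA-precipitated DNA counted by scintillation, mean dpm of triplicates ±SEM.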

[2] = test system: retinal pigment epithelium (RPE) cells; assay: Primary RPE culture proliferation; format: cell-based, human; settings: FIG. 5; 10^−10 to 10^−6 M, six days treatment
Procedure: Primary cultures of human retinal pigment epithelium (RPE) were established from eyes as previously described, (Campochiaro et al., Invest. Opthal & Vis. Sci. 32:65-72 (1991)). 5×10^4 Cells were plated in 16-mm wells of 24-well multiwell plates in Dulbecco's modified Eagle's medium (DMEM Gibco) containing 10% fetal bovine serum (FBS). Cells were treated with ethanol alone (control), ATRA (10^−10 to 10^−6 M) in ethanol, and Compound 42 (10^−10 to 10^−6 M) in ethanol. Cells were fed with fresh media containing the appropriate concentrations of these compounds every two days for a total of six days treatment. Cells were removed from the plates via treatment with trypsin and the number of cells were counted with an electronic cell counter.

CC(C)(C)c1cc(C(=O)Nc2ccc(C(=O)O)c(F)c2)cc(C(C)(C)C)n1 [Compound 42]
Kd (RXRΓ): > 1000 nM
growth of AML 193 malignant cells ([1]; 96 hours): inhibited the growth
growth of AML 193 cells at low concentrations ([1]; low concentrations): inhibit the malignant cell growth at low concentrations
RPE cell proliferation [2]: dose dependent decrease in RPE cell proliferation
